Reference: patent US20060160773A1, “Combretastatin derivatives with cytotoxic action” (priority 2003, published 2006)
Like-named read-outs stand apart in the source and are kept apart here. Marks after values point to notes of the source that are not given here.

Experiments:
[1] = tested on: Bovine microcirculatory endothelial cells (BMEC); experiment: Cytotoxicity test (sulforodamine B), BMEC; format: cell-based; details: read-out: IC50 ± SE
Procedure: (§1) The cytotoxic effect of our derivatives was evaluated in series of human and murine cell lines.
Bovine microcirculatory endothelial cells (BMEC), isolated from bovine adrenal glands, were maintained in culture in DMEM containing 20% FBS, 50 μg/ml of bovine brain extract (BBE), 50 units/ml of heparin (SIGMA), 100 units/ml of gentami-cin (SIGMA) and 10 mg/ml of L-glutamine (Hyclone). EA-hy926, an immortalised hybridoma of HUVEC and adenocarcinoma cells, obtained from the University of Bari Department of Biomedical Sciences and Human Oncology, was cultured in DMEM added with 10% FBS and gentamicin.
(§2) For the cytotoxicity test the cells were seeded at variable densities according to cell type in 96-well plates in normal culture medium (200 μl/well) and incubated for 24 hours at 37° C. On the next day, the study substances were added at scalar concentrations and the cells were incubated for a further 24 hours at 37° C. in a humidified atmosphere containing 5% CO2. At the end of the incubation period the medium containing the substances was removed and three washings with PBS were performed. At the end of the washings 200 μl/well of fresh medium were added and the plates were incubated at 37° C. for a further 48 hours. At the end of this incubation period the culture medium was removed by overturning the plates and 200 μl/well of PBS and 50 μl of 80% cold trichloroacetic acid (TCA) were added. The plates were then incubated in ice. After 1 h the TCA was removed, the plates were washed three times by immersion in distilled water and dried first on blotting paper and then in the oven. 200 μl of 0.4% sulforodamine B in 1% acetic acid were then added to all wells. The plates were incubated at room temperature for a further 30 minutes. The sulforodamine B was removed by overturning, the plates were washed three times by immersion in 1% acetic acid, and then dried first on blotting paper and then in the oven. 200 μl of Tris base 10 mM were then added to all wells and the plates were placed under stirring for at least 20 min. The optical density was measured by spectrophotometric readout at 540 nm.
(§3) In the same table are reported the IC50 of ST2897, ST2898 and ST2899 on BMEC.

[2] = tested on: MCF-7 human breast carcinoma; experiment: Cytotoxicity test (sulforodamine B), MCF-7; format: cell-based
Procedure: as §1
(§4) The following cell lines, purchased from ATCC, were cultured according to the manufacturer's instructions: MeWo human melanoma, NCI-H460 human lung cancer, LoVo human colon adenocarcinoma, PC3 human prostate carcinoma, MES-SA human uterine sarcoma, HCT 116 human colorectal carcinoma, MCF-7 human breast carcinoma.
as §2, §3

[3] = tested on: B16/BL6 murine melanoma line; experiment: Cytotoxicity test (sulforodamine B), B16/BL6; format: cell-based
Procedure: as §1
The B16/BL6 murine melanoma line, obtained from the M. Negri Institute in Milan, was cultured in DMEM containing 10% FBS and antibiotics.
as §2, §3

[4] = tested on: HT29 human colon adenocarcinoma line; experiment: Cytotoxicity test (sulforodamine B), HT29; format: cell-based
Procedure: as §1
(§5) The M109 murine lung cancer line, the HT29 human colon adenocarcinoma line, the A2780 human ovarian carcinoma line, obtained from the Milan Tumour Institute, were cultured in RPMI containing 10% FBS and antibiotics.
as §2, §3

[5] = tested on: HCT 116 human colorectal carcinoma; experiment: Cytotoxicity test (sulforodamine B), HCT 116; format: cell-based
Procedure: as §1, §4, §2, §3

[6] = tested on: Human umbilical vein endothelial cells (HUVEC); experiment: Cytotoxicity test (sulforodamine B), HUVEC; format: cell-based; details: read-out: IC50 ± SE
Procedure: as §1
Human umbilical vein endothelial cells (HUVEC), from the BioWhittaker company, were maintained in EGM-2 culture medium (BioWhittaker).
as §2, §3

[7] = tested on: NCI-H460 human lung cancer; experiment: Cytotoxicity test (sulforodamine B), NCI-H460; format: cell-based
Procedure: as §1, §4, §2, §3

[8] = tested on: MES-SA human uterine sarcoma; experiment: Cytotoxicity test (sulforodamine B), MES-SA; format: cell-based; details: read-out: IC50 ± SE
Procedure: as §1, §4, §2, §3

[9] = tested on: A2780 human ovarian carcinoma line; experiment: Cytotoxicity test (sulforodamine B), A2780; format: cell-based
Procedure: as §1, §5, §2, §3

[10] = Evaluation of cardiovascular parameters (blood pressure, heart rate) in anaesthetised rats; format: in vivo; details: 20 or 40 mg/kg injected in the jugular vein, anaesthetised Wistar rats (FIG. 1)
Procedure: Combretastatin A4, its prodrug ST2494 and our water soluble selected compounds ST2495 and ST2496, diluted at the doses of 20 or 40 mg/kg in saline solution or for combretastatin A4 in 5% DMSO, were injected in the jugular vein of Wistar rats anaesthetised with 55 mg/kg Nembutal. The parameter considered were blood pressure and heart rate.

[11] = tested on: human NCI-H460 lung cancer cells; experiment: Anticancer activity in animal model of human lung carcinoma (NCI-H460 s.c. in nude CD1 mice); format: in vivo
Procedure: The anticancer activity of ST2495 and ST2496 was assayed in an animal model of human lung carcinoma.
In this model, human NCI-H460 lung cancer cells at a density of 3×10^6 cells/mouse were injected subcutaneously in the right flank of nude CD1 mice. […]
All the animals were weighed during the course of the treatment to adjust the drug administration volume and to record the percentage loss of body weight (% BWL).
Tumour growth was assessed by measuring the shorter diameter (width) and the longer diameter (length) of each tumour twice a week with a Vernier caliper, and the anticancer activity was evaluated in terms of percentage inhibition of tumour growth. The tumour volume was calculated using the following formula: tumour volume (TV) in mm^3=[length (mm)×width (mm)^2]/2. The percentage inhibition (% TVI) was calculated according to the following equation: 100−[(mean tumour volume of the treated group/mean tumour volume of the control group)×100]. A value of P≦0.05 was regarded as statistically significant.

MeWo human melanoma = experiment: Cytotoxicity test (sulforodamine B), MeWo; format: cell-based; details: read-out: IC50 ± SE
Procedure: as §1, §4, §2, §3

[12] = i.v. 60 mg/kg, q2dx6, day 5 to day 17
[13] = i.v. 90 mg/kg, q2dx6, day 5 to day 17
[14] = p.o. 30 mg/kg, qdx5/w, day 4 to day 14
[15] = 24 h exposure, 48 h recovery, SRB
[16] = i.p. 30 mg/kg twice/day, qd5x/w, day 4 to day 22
[17] = i.p. 30 mg/kg, qd5x/w once a day, day 4 to day 22
[18] = i.v. 60 mg/kg, q2dx6, day 4 to day 16
[19] = i.v. 90 mg/kg, q2dx6, day 4 to day 16
[20] = p.o. 30 mg/kg twice/day, qd5x/w, day 4 to day 22
[21] = p.o. 60 mg/kg twice/day, qd5x/w, day 4 to day 22

COc1cc(/C=C\c2cc(OP(=O)(O)O)c3ccoc3c2)cc(OC)c1OC [ST2496, Disodium 6[(Z)-2-(3,4,5-trimethoxyphenyl)ethenyl]-1-benzo-furan-4-ol 4-O-phosphate]
IC50 ([1]; Bos taurus, Endothelial cell): 340 ± 16 nM
IC50 ([2]; Homo sapiens, MCF7, read-out: IC50 ± SE): 646 ± 29 nM
IC50 ([3]; Mus musculus, B16-BL6, read-out: IC50 ± SE): 4140 ± 490 nM
IC50 ([4]; Homo sapiens, HT-29, read-out: IC50 ± SE): 3900 ± 70 nM
IC50 ([5]; Homo sapiens, HCT-116, read-out: IC50 ± SE): 1680 ± 70 nM
IC50 ([6]; Homo sapiens): 85 ± 1.2 nM
IC50 ([7]; Homo sapiens, NCI-H460, read-out: IC50 ± SE): 780 ± 3.4 nM
IC50 ([8]; Homo sapiens, MES-SA): 500 ± 50 nM
IC50 ([9]; Homo sapiens, A2780, read-out: IC50 ± SE): 260 ± 6 nM
blood pressure [10]: did not show significant effect
heart rate [10]: did not show significant effect
% BWL [11, 12]: 1%
Mortality [11, 12]: 0/8
% TVI ([11]; i.v. 60 mg/kg, q2dx6 day 5 to 17, day 14 after tumor inoculation): 48** %
% TVI ([11]; i.v. 60 mg/kg, q2dx6 day 5 to 17, day 21 after tumor inoculation): 53** %
% BWL [11, 13]: 1%
Mortality [11, 13]: 0/8
% TVI ([11]; i.v. 90 mg/kg, q2dx6 day 5 to 17, day 14 after tumor inoculation): 57*** %
% TVI ([11]; i.v. 90 mg/kg, q2dx6 day 5 to 17, day 21 after tumor inoculation): 56** %
% TVI ([11]; p.o. 30 mg/kg, qdx5/w day 4 to 14, day 14 after tumor inoculation): 48* %
% TVI ([11]; p.o. 30 mg/kg, qdx5/w day 4 to 14, day 21 after tumor inoculation): 46* %
% BWL [11, 14]: 1%
Mortality [11, 14]: 0/8
IC50 (MeWo human melanoma; Homo sapiens): 820 ± 7.7 nM

COc1ccc(/C=C\c2cc(OC)c3ccoc3c2)cc1O [ST2897, Cis-2-Methoxy-5-[2-(4-methoxy-benzofuran-6-yl)-vinyl]-phenol]
IC50 ([1]; Bos taurus, Endothelial cell): 35 ± 1.8 nM

COc1ccc(/C=C\c2cc(OC)c3occc3c2)cc1O [ST2898, Cis-2-Methoxy-5-[2-(7-methoxy-benzofuran-5-yl)-vinyl]-phenol]
IC50 ([1]; Bos taurus, Endothelial cell): 35 ± 0.3 nM

COc1ccc(/C=C\c2cc(OC)c3ccsc3c2)cc1O [ST2899, Cis-2-Methoxy-5-[2-(4-methoxy-benzo[b]thiophen-6-yl)-vinyl]-phenol]
IC50 ([1]; Bos taurus, Endothelial cell): < 40 nM

Disodium 6[(Z)-2-(3,4,5-trimethoxyphenyl)ethenyl]-1-benzo-thiophen-4-ol-4-O-phospohate [ST2495]
IC50 ([1]; BMEC, 24 h exposure, 48 h recovery, SRB): 640 ± 40 nM
IC50 ([2]; MCF-7, 24 h exposure, 48 h recovery, SRB, read-out: IC50 ± SE): 693 ± 21 nM
IC50 ([3]; B16/BL6, 24 h exposure, 48 h recovery, SRB, read-out: IC50 ± SE): > 10000 nM
IC50 ([4]; HT29, 24 h exposure, 48 h recovery, SRB, read-out: IC50 ± SE): > 10000 nM
IC50 ([5]; HCT-116, 24 h exposure, 48 h recovery, SRB, read-out: IC50 ± SE): 3000 ± 102 nM
IC50 [6, 15]: 83 ± 2.06 nM
IC50 ([7]; NCI-H460, 24 h exposure, 48 h recovery, SRB, read-out: IC50 ± SE): 620 ± 65 nM
IC50 ([8]; MESSA, 24 h exposure, 48 h recovery, SRB): 1420 ± 49 nM
IC50 ([9]; A2780, 24 h exposure, 48 h recovery, SRB, read-out: IC50 ± SE): 500 ± 20 nM
anticancer activity (summary in words) ([11]; NCI-H460 in nude mice, i.p., p.o. and i.v. routes): proved active with all the administration routes
% BWL [11, 16]: 0%
Mortality [11, 16]: 0/8
% TVI ([11]; i.p. 30 mg/kg twice/day, qd5x/w, day 15 after tumor inoculation): 75** %
% TVI ([11]; i.p. 30 mg/kg twice/day, qd5x/w, day 22 after tumor inoculation): 72** %
% BWL [11, 17]: 4%
Mortality [11, 17]: 0/8
% TVI ([11]; i.p. 30 mg/kg, qd5x/w once a day, day 15 after tumor inoculation): 32** %
% TVI ([11]; i.p. 30 mg/kg, qd5x/w once a day, day 22 after tumor inoculation): 38* %
% BWL [11, 18]: 1%
Mortality [11, 18]: 0/8
% TVI ([11]; i.v. 60 mg/kg, q2dx6 day 4 to 16, day 15 after tumor inoculation): 84** %
% TVI ([11]; i.v. 60 mg/kg, q2dx6 day 4 to 16, day 22 after tumor inoculation): 73** %
% BWL [11, 19]: 0%
Mortality [11, 19]: 0/8
% TVI ([11]; i.v. 90 mg/kg, q2dx6 day 4 to 16, day 15 after tumor inoculation): 81** %
% TVI ([11]; i.v. 90 mg/kg, q2dx6 day 4 to 16, day 22 after tumor inoculation): 62** %
% BWL [11, 20]: 0%
Mortality [11, 20]: 0/8
% TVI ([11]; p.o. 30 mg/kg twice/day, qd5x/w, day 15 after tumor inoculation): 42** %
% TVI ([11]; p.o. 30 mg/kg twice/day, qd5x/w, day 22 after tumor inoculation): 30* %
% BWL [11, 21]: 1%
Mortality [11, 21]: 0/8
% TVI ([11]; p.o. 60 mg/kg twice/day, qd5x/w, day 15 after tumor inoculation): 79** %
% TVI ([11]; p.o. 60 mg/kg twice/day, qd5x/w, day 22 after tumor inoculation): 67** %
IC50 (MeWo human melanoma; [15]): 830 ± 0.13 nM
